Measured values published in patent US6869589B1, “Cryptate compounds and methods for diagnosis and therapy” (Australian Nuclear Science & Technology Organization, priority 1999, dated 2005).

Columns and labels:
[1] = Effect of pH on complexation of ^64Cu by compound (3), monitored by ITLC-SG; type: physicochemical
Experimental: The effect of pH on complexation of ^64Cu by compound (3) was investigated. Compound (3) was diluted into buffers of pH 3.0, 4.0, 5.0, 6.0, 7.0, 8.0 and 9.0. A sufficient amount of ^64Cu was added and the rate of complexation was monitored at (t=1, 2.5, 5, 10, 60 and 90 mins) (see method below) by Instant Thin Layer Chromatography (ITLC-SG). Complete complexation (>98%) was achieved within 1 min for all pH ≧4.0. The rate of complexation at pH 3.0 was slower. (FIG. 2).
Monitoring Complexation by ITLC-SG
ITLC-SG strips (10 cm×0.8 cm) were spotted with ˜1 μL of reaction mixture 1 cm from the bottom of the strip (origin) and were developed in a solvent containing 0.1 M sodium acetate (pH 4.5): ethanol=9:1. ^64Cu-compound (3) remains at the origin (Rf=0.0), and “free” ^64Cu appears at the solvent front (Rf=1.0).

[2] = mouse, in vivo
Experimental: (§1) The biodistribution of the ^64Cu complexes of compounds (1), (3) and (4) (0.10 ml intravenous injection) were evaluated in balb/c mice (5 animals per time point) at 3, 5, 10, 15, 20 and 30 minute time intervals. Biodistribution studies were performed in duplicate.

[3] = Serum stability of ^67Cu complex in human plasma at 37° C., size exclusion chromatography; type: in vitro ADME; conditions: first 174 hours
Experimental: Serum stability studies were conducted by incubating a ^67Cu complex of related species (4) in human plasma at 37° C. [drawing 11]
At various time intervals, the complex was separated from the plasma by size exclusion chromatography and the complex breakdown was assessed. […] (FIGS. 1a and 1b).

[4] = Biodistribution of ^64Cu complexes in balb/c mice
Experimental: as §1

Nc1ccc(CNC23CNCCNCC(N)(CNCCNC2)CNCCNC3)cc1 [compound (3)]
Time to complete complexation of ^64Cu ([1]; all pH ≧4.0): ≤ 1 min
Complexation of ^64Cu (complete complexation) ([1]; all pH ≧4.0, within 1 min, ITLC-SG): > 98%
Rate of complexation of ^64Cu ([1]; pH 3.0, compared with pH ≧4.0): slower
Clearance of the complex (biodistribution, in words) [2]: clear rapidly from the system

C1CNCC2CNCCNCC(CN1)CNCCNC2.[67Cu+2] [^67Cu complex of compound (4)]
Copper lost from the chelator [3]: no more than 2%

NC12CNCCNCC(N)(CNCCNC1)CNCCNC2.[64Cu+2] [^64Cu-labelled compound (1)]
% injected dose per gram ([4]; BLADDER, 3 MIN): 24.36 % INJECTED DOSE PER GRAM
% injected dose per gram ([4]; BLADDER, 5 MIN): 31.12 % INJECTED DOSE PER GRAM
% injected dose per gram ([4]; BLADDER, 10 MIN): 27.75 % INJECTED DOSE PER GRAM
% injected dose per gram ([4]; BLADDER, 15 MIN): 15.17 % INJECTED DOSE PER GRAM
% injected dose per gram ([4]; BLADDER, 20 MIN): 23.29 % INJECTED DOSE PER GRAM
% injected dose per gram ([4]; BLADDER, 30 MIN): 122.93 % INJECTED DOSE PER GRAM
% injected dose per gram ([4]; BLOOD, 3 MIN): 8.68 % INJECTED DOSE PER GRAM
% injected dose per gram ([4]; BLOOD, 5 MIN): 6.32 % INJECTED DOSE PER GRAM
% injected dose per gram ([4]; BLOOD, 10 MIN): 5.45 % INJECTED DOSE PER GRAM
% injected dose per gram ([4]; BLOOD, 15 MIN): 2.48 % INJECTED DOSE PER GRAM
% injected dose per gram ([4]; BLOOD, 20 MIN): 2.63 % INJECTED DOSE PER GRAM
% injected dose per gram ([4]; BLOOD, 30 MIN): 1.14 % INJECTED DOSE PER GRAM
% injected dose per gram ([4]; BONE, 3 MIN): 2.25 % INJECTED DOSE PER GRAM
% injected dose per gram ([4]; BONE, 5 MIN): 1.87 % INJECTED DOSE PER GRAM
% injected dose per gram ([4]; BONE, 10 MIN): 1.79 % INJECTED DOSE PER GRAM
% injected dose per gram ([4]; BONE, 15 MIN): 1.23 % INJECTED DOSE PER GRAM
% injected dose per gram ([4]; BONE, 20 MIN): 1.25 % INJECTED DOSE PER GRAM
% injected dose per gram ([4]; BONE, 30 MIN): 0.78 % INJECTED DOSE PER GRAM
% injected dose per gram ([4]; GIT, 3 MIN): 2.75 % INJECTED DOSE PER GRAM
% injected dose per gram ([4]; GIT, 5 MIN): 2.21 % INJECTED DOSE PER GRAM
% injected dose per gram ([4]; GIT, 10 MIN): 1.85 % INJECTED DOSE PER GRAM
% injected dose per gram ([4]; GIT, 15 MIN): 1.11 % INJECTED DOSE PER GRAM
% injected dose per gram ([4]; GIT, 20 MIN): 1.05 % INJECTED DOSE PER GRAM
% injected dose per gram ([4]; GIT, 30 MIN): 1.16 % INJECTED DOSE PER GRAM
% injected dose per gram ([4]; HEART, 3 MIN): 3.11 % INJECTED DOSE PER GRAM
% injected dose per gram ([4]; HEART, 5 MIN): 2.25 % INJECTED DOSE PER GRAM
% injected dose per gram ([4]; HEART, 10 MIN): 2.27 % INJECTED DOSE PER GRAM
% injected dose per gram ([4]; HEART, 15 MIN): 0.89 % INJECTED DOSE PER GRAM
% injected dose per gram ([4]; HEART, 20 MIN): 1.23 % INJECTED DOSE PER GRAM
% injected dose per gram ([4]; HEART, 30 MIN): 0.40 % INJECTED DOSE PER GRAM
% injected dose per gram ([4]; KIDNEY, 3 MIN): 23.18 % INJECTED DOSE PER GRAM
% injected dose per gram ([4]; KIDNEY, 5 MIN): 11.50 % INJECTED DOSE PER GRAM
% injected dose per gram ([4]; KIDNEY, 10 MIN): 12.80 % INJECTED DOSE PER GRAM
% injected dose per gram ([4]; KIDNEY, 15 MIN): 6.77 % INJECTED DOSE PER GRAM
% injected dose per gram ([4]; KIDNEY, 20 MIN): 7.77 % INJECTED DOSE PER GRAM
% injected dose per gram ([4]; KIDNEY, 30 MIN): 4.95 % INJECTED DOSE PER GRAM
% injected dose per gram ([4]; LIVER, 3 MIN): 2.29 % INJECTED DOSE PER GRAM
% injected dose per gram ([4]; LIVER, 5 MIN): 1.50 % INJECTED DOSE PER GRAM
% injected dose per gram ([4]; LIVER, 10 MIN): 1.42 % INJECTED DOSE PER GRAM
% injected dose per gram ([4]; LIVER, 15 MIN): 0.82 % INJECTED DOSE PER GRAM
% injected dose per gram ([4]; LIVER, 20 MIN): 0.69 % INJECTED DOSE PER GRAM
% injected dose per gram ([4]; LIVER, 30 MIN): 0.50 % INJECTED DOSE PER GRAM
% injected dose per gram ([4]; LUNGS, 3 MIN): 6.51 % INJECTED DOSE PER GRAM
% injected dose per gram ([4]; LUNGS, 5 MIN): 4.45 % INJECTED DOSE PER GRAM
% injected dose per gram ([4]; LUNGS, 10 MIN): 3.91 % INJECTED DOSE PER GRAM
% injected dose per gram ([4]; LUNGS, 15 MIN): 2.06 % INJECTED DOSE PER GRAM
% injected dose per gram ([4]; LUNGS, 20 MIN): 2.73 % INJECTED DOSE PER GRAM
% injected dose per gram ([4]; LUNGS, 30 MIN): 0.85 % INJECTED DOSE PER GRAM
% injected dose per gram ([4]; MUSCLE, 3 MIN): 1.81 % INJECTED DOSE PER GRAM
% injected dose per gram ([4]; MUSCLE, 5 MIN): 1.81 % INJECTED DOSE PER GRAM
% injected dose per gram ([4]; MUSCLE, 10 MIN): 2.39 % INJECTED DOSE PER GRAM
% injected dose per gram ([4]; MUSCLE, 15 MIN): 2.28 % INJECTED DOSE PER GRAM
% injected dose per gram ([4]; MUSCLE, 20 MIN): 1.17 % INJECTED DOSE PER GRAM
% injected dose per gram ([4]; MUSCLE, 30 MIN): 1.33 % INJECTED DOSE PER GRAM
% injected dose per gram ([4]; SKIN, 3 MIN): 5.82 % INJECTED DOSE PER GRAM
% injected dose per gram ([4]; SKIN, 5 MIN): 5.59 % INJECTED DOSE PER GRAM
% injected dose per gram ([4]; SKIN, 10 MIN): 5.48 % INJECTED DOSE PER GRAM
% injected dose per gram ([4]; SKIN, 15 MIN): 2.61 % INJECTED DOSE PER GRAM
% injected dose per gram ([4]; SKIN, 20 MIN): 2.96 % INJECTED DOSE PER GRAM
% injected dose per gram ([4]; SKIN, 30 MIN): 1.63 % INJECTED DOSE PER GRAM
% injected dose per gram ([4]; SPLEEN, 3 MIN): 2.09 % INJECTED DOSE PER GRAM
% injected dose per gram ([4]; SPLEEN, 5 MIN): 1.48 % INJECTED DOSE PER GRAM
% injected dose per gram ([4]; SPLEEN, 10 MIN): 1.54 % INJECTED DOSE PER GRAM
% injected dose per gram ([4]; SPLEEN, 15 MIN): 1.44 % INJECTED DOSE PER GRAM
% injected dose per gram ([4]; SPLEEN, 20 MIN): 0.69 % INJECTED DOSE PER GRAM
% injected dose per gram ([4]; SPLEEN, 30 MIN): 0.52 % INJECTED DOSE PER GRAM
% injected dose per gram ([4]; STOMACH, 3 MIN): 3.50 % INJECTED DOSE PER GRAM
% injected dose per gram ([4]; STOMACH, 5 MIN): 2.73 % INJECTED DOSE PER GRAM
% injected dose per gram ([4]; STOMACH, 10 MIN): 2.08 % INJECTED DOSE PER GRAM
% injected dose per gram ([4]; STOMACH, 15 MIN): 1.50 % INJECTED DOSE PER GRAM
% injected dose per gram ([4]; STOMACH, 20 MIN): 1.16 % INJECTED DOSE PER GRAM
% injected dose per gram ([4]; STOMACH, 30 MIN): 0.74 % INJECTED DOSE PER GRAM
